PubChem BioAssay (NCI)
Several values for one entry are separate records, joined by “and”; a condition that tells them apart may be missing. Equal values may be shown once.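 Compound exposure: 48 hours, 5 concentrations, 96-well plates. Abbreviation: GI50, concentration required for 50% inhibition of growth. TGI: concentration producing complete growth inhibition.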

Assays:
Assay in all cases: NCI anticancer screen, dose series, 48 h
SF-268 CNS = tested on: SF-268 CNS
IGROV1 ovarian = tested on: IGROV1 ovarian
SN12C renal = tested on: SN12C renal
U251 CNS = tested on: U251 CNS
UACC-257 melanoma = tested on: UACC-257 melanoma
SNB-19 CNS = tested on: SNB-19 CNS
KM12 colon = tested on: KM12 colon
COLO 205 colon = tested on: COLO 205 colon
K-562 leukemia = tested on: K-562 leukemia
OVCAR-3 ovarian = tested on: OVCAR-3 ovarian

Structure (SMILES) | GI50 (SF-268 CNS) | TGI (SF-268 CNS) | GI50 (IGROV1 ovarian) | TGI (IGROV1 ovarian) | GI50 (SN12C renal) | TGI (SN12C renal) | GI50 (U251 CNS) | TGI (U251 CNS) | GI50 (UACC-257 melanoma) | TGI (UACC-257 melanoma) | GI50 (SNB-19 CNS) | TGI (SNB-19 CNS) | GI50 (KM12 colon) | TGI (KM12 colon) | GI50 (COLO 205 colon) | TGI (COLO 205 colon) | GI50 (K-562 leukemia) | TGI (K-562 leukemia) | GI50 (OVCAR-3 ovarian) | TGI (OVCAR-3 ovarian)
CCCCCCCCCCN1CCC(N2CCCCC2)CC1 | 4.1 µM | 17 µM | 1.66 µM | 4.52 µM | 4.81 µM | 19.3 µM | 1.51 µM | 4.47 µM | 1.76 µM | 3.24 µM | 3.95 µM | 14.5 µM | 1.82 µM | 3.75 µM | 1.3 µM | 2.56 µM | 1.28 µM | 3.44 µM | 4.64 µM | 16.6 µM
O=C(Nc1ccc(Cl)c(Cl)c1)Nc1ccccc1O | 9.59 µM | 27.4 µM | 6.48 µM | 29.3 µM | 8.4 µM | 25.1 µM | 6.41 µM | 25.3 µM | 6.6 µM | 25 µM | 9.92 µM | 44.3 µM | 3.35 µM | 13.7 µM | 5.38 µM | 18.6 µM | 3.4 µM | 76.8 µM | 3.24 µM | 13.5 µM
CC1=C(c2cc(C(=O)Nc3ccc(Cl)cc3)nc(=S)[nH]2)Sc2ccccc2N1 | – | > 100 µM | – | > 100 µM | – | > 100 µM | – | > 100 µM | – | > 100 µM | – | > 100 µM | – | > 100 µM | – | > 100 µM | – | > 100 µM | – | > 100 µM
O=c1[nH]c(=O)n([C@H]2CCCO2)cc1F | 3000 µM | > 5000 µM | 2270 µM | > 5000 µM | 1910 µM | > 5000 µM | > 4570 µM | > 5000 µM | 3540 µM | > 5000 µM | – | > 5000 µM | 1320 µM | > 5000 µM | 1090 µM | > 5000 µM | 2770 µM | > 5000 µM | 1650 µM | > 5000 µM
CC1=C(C(=O)NNS(=O)(=O)c2ccc(C)cc2)CC(C(=O)NNS(=O)(=O)c2ccc(C)cc2)=C(C)N1 | – | > 100 µM | – | > 100 µM | – | > 100 µM | – | > 100 µM | – | > 100 µM | – | > 100 µM | – | > 100 µM | – | > 100 µM | – | > 100 µM | – | > 100 µM
Cc1cc(C)n(-c2nnc3n2N=C(c2ccc(-c4ccccc4)cc2)CS3)n1 | 3.96 µM | > 100 µM | 4.81 µM | > 100 µM | 3.92 µM | > 100 µM | 3.4 µM | > 100 µM | 4.99 µM | > 100 µM | 3.98 µM | > 100 µM | 3.49 µM | > 100 µM | 2.23 µM | 4.77 µM | 3.58 µM | > 100 µM | 2.31 µM | 5.55 µM
Cn1c(=O)c2c(ncn2CC(=O)Nc2ccc(-c3ccccc3)nn2)n(C)c1=O | > 100 µM | > 100 µM | > 100 µM | > 100 µM | > 100 µM | > 100 µM | > 100 µM | > 100 µM | > 100 µM | > 100 µM | > 100 µM | > 100 µM | > 100 µM | > 100 µM | > 100 µM | > 100 µM | > 100 µM | > 100 µM | > 100 µM | > 100 µM
[F][Sn]([F])([c]1ccccc1)[c]1ccccc1 | 1.84 µM | 3.78 µM | 1.84 µM | 4 µM | 1.68 µM | 3.18 µM | 1.63 µM | 3.05 µM | 1.56 µM | 3.2 µM | 2.25 µM | 5.58 µM | 1.7 µM | 3.43 µM | 1.81 µM | 3.97 µM | 0.702 µM | 4.96 µM | 1.59 µM | 3 µM
COC(C(=O)[C@@H](O)[C@@H](C)O)[C@@H]1Cc2cc3cc(O[C@H]4C[C@@H](O[C@H]5C[C@@H](O)[C@H](O)C(C)O5)[C@H](O)C(C)O4)c(C)c(O)c3c(O)c2C(=O)[C@H]1O[C@H]1C[C@@H](O[C@H]2C[C@@H](O[C@H]3C[C@@H](O)[C@H](OC)C(C)O3)[C@@H](O)C(C)O2)[C@H](O)C(C)O1 (stereo partly drawn) | 0.0307 µM | > 33.3 µM | 0.0239 µM | > 33.3 µM | – | > 33.3 µM | – | > 33.3 µM | 0.013 µM | 0.101 µM | – | > 33.3 µM | – | > 33.3 µM | 0.0145 µM | 0.0521 µM | 0.0224 µM | > 33.3 µM | 0.0212 µM | 1.04 µM
N#CC(C(=O)CCC(=O)Nc1cccc(C(F)(F)F)c1)c1ccc(Cl)cc1 (stereo not drawn) | – | > 100 µM | – | > 100 µM | – | > 100 µM | – | > 100 µM | – | > 100 µM | – | > 100 µM | – | > 100 µM | – | > 100 µM | – | > 100 µM | – | > 100 µM
Cc1cc(C(C)(C)C)cc(Cc2cc(C(C)(C)C)cc(Cc3cc(C(C)(C)C)cc(C)c3O)c2O)c1O | – | 12.2 µM | – | 23.5 µM | – | 33.6 µM | – | 14.9 µM | – | 20.8 µM | – | 26 µM | – | 21.4 µM | – | 29.7 µM | – | 16.4 µM | – | 16.5 µM
COC(=O)/C(=C\c1ccc(N(CCC#N)CCC#N)cc1)NC(=O)c1cc([N+](=O)[O-])ccc1Cl | – | > 100 µM | – | > 100 µM | – | > 100 µM | – | > 100 µM | – | > 100 µM | – | > 100 µM | – | > 100 µM | – | > 100 µM | – | > 100 µM | – | > 100 µM
COC1=C(Br)C(=O)c2nc(C)ccc2C1=O | – | 33.1 µM | – | 33.9 µM | – | 29.1 µM | – | 28.5 µM | – | 26.6 µM | – | > 55.1 µM | – | 31.7 µM | – | 24.6 µM | – | > 27.8 µM | – | 19.5 µM
O=C(CSC(c1ccccc1)c1ccccc1)N/N=C/c1ccco1 | 2.25 µM | > 12.5 µM | – | 1.41 µM | 17.2 µM | 35.7 µM | 1.77 µM | 3.21 µM | – | 0.935 µM | 36 µM | > 100 µM | 2.03 µM | 15.5 µM | 20.3 µM | 52 µM | 2.16 µM | 8.74 µM | 1.92 µM | 3.49 µM
CCCCCCCCCCCCOC1C(C(CC(=O)NCCN2CCCC2)NS(=O)(=O)c2cc(Cl)cc(Cl)c2)OC2OC(C)(C)OC21 (stereo not drawn) | 1.95 µM and 1.97 µM | 3.96 µM and 3.84 µM | 1.95 µM | 3.6 µM | 1.76 µM | 3.23 µM | 1.92 µM | 3.58 µM | 2.04 µM | 4.84 µM | 2.2 µM and 1.37 µM | 4.36 µM and 2.81 µM | 1.81 µM | 3.45 µM | 2.06 µM and 1.19 µM | 4.4 µM and 2.66 µM | 2.34 µM | 4.85 µM | 1.87 µM | 3.72 µM
COC(=O)c1cccc2cccc(C(=O)Nc3ccc(Cl)cc3)c12 | – | > 100 µM | – | > 100 µM | – | > 100 µM | – | > 100 µM | – | > 100 µM | – | > 100 µM | – | > 100 µM | – | > 62.3 µM | – | > 33 µM | – | > 100 µM
COc1ccc2c(Oc3ccc(NC(=O)c4c(C)n(CC(C)(C)O)n(-c5ccccc5)c4=O)nc3)ccnc2c1 | 16.8 µM | > 100 µM | 12.3 µM | > 100 µM | 4.94 µM | > 100 µM | 13.1 µM | > 100 µM | 16.6 µM | > 100 µM | 46.4 µM | > 100 µM | 2.23 µM | > 100 µM | > 73.4 µM | > 100 µM | 2.77 µM | 20 µM | 19.5 µM | 70.6 µM
N.N.NCCCCCCCCCN.O=C([O-])CC(=O)[O-].O=C([O-])CC(=O)[O-].[Pt+4].[Pt+4] | > 100 µM | > 100 µM | > 100 µM | > 100 µM | 67.5 µM | > 100 µM | 95.2 µM | > 100 µM | > 100 µM | > 100 µM | > 100 µM | > 100 µM | > 100 µM | > 100 µM | > 100 µM | > 100 µM | > 100 µM | > 100 µM | > 100 µM | > 100 µM
CC1C(=O)OC2CC[N+]3([O-])CC=C(COC(=O)C(C)(O)C1(C)O)C23 (stereo not drawn) | – | > 100 µM | – | > 100 µM | – | > 100 µM | – | > 100 µM | – | > 100 µM | – | > 100 µM | – | > 100 µM | – | > 100 µM | – | > 100 µM | – | > 100 µM
CCCCc1c2c(nc3c1CCC/C3=C\c1ccccc1)/C(=C/c1ccccc1)CCC2 | – | > 100 µM | – | > 100 µM | – | > 100 µM | – | > 100 µM | – | > 100 µM | – | > 100 µM | – | > 100 µM | – | > 100 µM | – | > 100 µM | – | > 100 µM
CC(O)CC(O)(C(F)(F)F)C(F)(F)F (stereo not drawn) | – | > 10 µM | – | > 10 µM | – | > 10 µM | – | > 10 µM | – | > 10 µM | – | > 10 µM | – | > 10 µM | – | > 10 µM | – | > 10 µM | – | > 10 µM
CC1=CC(=O)C(C(O)(C(F)(F)F)C(F)(F)F)C(C)(C)C1 (stereo not drawn) | – | > 10 µM | – | > 10 µM | – | > 10 µM | – | > 10 µM | – | > 10 µM | – | > 10 µM | – | > 10 µM | – | > 10 µM | – | > 10 µM | – | > 10 µM
O=C1C(=O)N(c2cc(Cl)ccc2Cl)C(=O)C(=O)C1c1nc2ccccc2o1 | – | > 100 µM | – | > 100 µM | – | > 100 µM | – | > 100 µM | – | > 100 µM | – | > 100 µM | – | > 31.6 µM | – | > 100 µM | – | > 100 µM | – | > 100 µM
